Results reported in patent US9708266B2, “Cyclohexyl pyridine derivative” (priority 2014, dated 2017).

Experiments:
Type in all cases: in vivo
NK1 receptor = NK1 receptor (Meriones unguiculatus (Mongolian jird) (Gerbillus unguiculatus), UniProt Q5DUB1); experiment: Effect on GR73632-induced foot-tapping; conditions: male gerbil, 0.1 mg/kg iv, GR73632 icv after four hours
Method: (§1) The test compound solution was prepared by dissolving the test compound in a vehicle (a mixture of 50% N,N-dimethylacetamide (Wako Pure Chemical Industries), 30% propylene glycol (Wako Pure Chemical Industries), 4% 2-hydroxypropyl-3-cyclodextrin (Wako Pure Chemical Industries) and 16% distilled water).
A male gerbil (Japan SLC) was anesthetized with isoflurane, and 0.1 mg/kg of a test compound was administered from the jugular vein. After four hours, GR73632 (5 pmol/5 μl saline), which is an NK1 receptor agonist, was administered into the cerebral ventricle at the part 1 mm lateral to and 4.5 mm below the bregma in the head, under anesthesia with isoflurane. After the administration, the gerbil was moved to an observation cage, and the foot-tapping period during 30 minutes after the recovery of the righting reflex was measured. The foot-tapping inhibition rate (%) of each test compound was calculated by the following equation. Foot-tapping inhibition rate (%)={1−(Foot-tapping period when test compound was administered)/(Foot-tapping period when solvent was administered)}×100 (2) Measurement of Drug Concentrations

[1] = Ferret pharmacokinetic test; conditions: male ferret, plasma
Method: Ferret Pharmacokinetic Test
The test compound solution for intravenous administration was prepared by dissolving the test compound in a vehicle (a mixture of 50% N,N-dimethylacetamide (Wako Pure Chemical Industries), 30% propylene glycol (Wako Pure Chemical Industries), 4% 2-hydroxypropyl-β-cyclodextrin (Wako Pure Chemical Industries) and 16% distilled water). As an oral administration solution, the suspension (0.5% methylcelluose) was used.
Under anesthesia with isoflurane, 0.1 mg/kg of the test compound was intravenously administered to a male ferret (Marshall BioResources Japan) from the femoral vein. In the case of oral administration, 1 mg/kg of the test compound was orally administered to an awake animal. After the administration of the test compound, blood samples were taken sequentially from the brachial cephalic vein up to 7 days after the administration. Through a quantitative analysis using liquid chromatography-mass spectrometry (LC/MS), the concentrations of the test compound in the plasma were measured.
In the tables, Ex. No. means the Example number. t1/2, CLtot and Vss are the half-life, the total body clearance and the steady-state volume of distribution, based on the plasma concentrations in the case of intravenous administration, respectively. Cmax, AUC and BA are the maximum plasma test compound concentration, the area under the plasma test compound concentration-time curve within 7 days after the administration and the bioavailability, in the case of oral administration, respectively.

[2] = tested on: cisplatin-induced acute and delayed emetic response; experiment: Effect on cisplatin-induced acute and delayed emetic response; conditions: male ferret, 0.01 or 0.1 mg/kg iv, cisplatin 5 mg/kg ip
Method: The vertical axes show the number of retching and vomiting (Retches+Vomits) (the mean+standard error of 3 examples of control group, the mean+standard error of 3 examples of the group intravenously administered with 0.01 mg/kg, and the mean+standard error of 3 examples of the group intravenously administered with 0.1 mg/kg).
Effect on Cisplatin-Induced Acute and Delayed Emetic Response
as §1, with “2-hydroxypropyl-β-cyclodextrin” for “2-hydroxypropyl-3-cyclodextrin”, “water). The vehicle only was administered to the control group.” for “water).”
Under anesthesia with isoflurane, 0.01 mg/kg or 0.1 mg/kg of the test compound was intravenously administered to a male ferret (Marshall BioResources Japan) from the jugular vein. Cisplatin in saline, which was heated to 40-50° C., was intraperitoneally administered at 5 mg/kg one hour after the drug administration.

Sequence of NK1 receptor (Q5DUB1 whole entry): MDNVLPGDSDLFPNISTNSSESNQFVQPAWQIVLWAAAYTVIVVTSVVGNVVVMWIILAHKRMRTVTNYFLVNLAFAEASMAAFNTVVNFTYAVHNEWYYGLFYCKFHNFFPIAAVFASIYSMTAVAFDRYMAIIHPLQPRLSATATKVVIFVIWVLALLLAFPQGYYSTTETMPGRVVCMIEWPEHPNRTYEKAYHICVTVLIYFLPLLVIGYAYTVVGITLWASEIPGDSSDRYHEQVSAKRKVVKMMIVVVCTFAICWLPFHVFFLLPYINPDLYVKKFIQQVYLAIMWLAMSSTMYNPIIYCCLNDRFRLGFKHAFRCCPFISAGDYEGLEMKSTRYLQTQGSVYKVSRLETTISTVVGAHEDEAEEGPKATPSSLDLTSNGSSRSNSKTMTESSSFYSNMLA

Row | Structure (SMILES) | Inhibition (foot-tapping inhibition rate) (NK1 receptor) [%] | further results
1 | Cc1cc(F)ccc1-c1cc(C2CCC(C(=O)O)CC2)ncc1N(C)C(=O)C(C)(C)c1cc(C(F)(F)F)cc(C(F)(F)F)c1 (stereo not drawn) [Example 1, 4-[5-{[2-(3,5-Bistrifluoromethylphenyl)-2-methylpropionyl]methylamino}-4-(4-fluoro-2-methylphenyl)pyridin-2-yl]cyclohexanecarboxylic acid] | 98 | –
2 | Cc1cc(F)ccc1-c1cc(C2CCCC(CC(=O)O)C2)ncc1N(C)C(=O)C(C)(C)c1cc(C(F)(F)F)cc(C(F)(F)F)c1 (stereo not drawn) [Example 3, {3-[5-{[2-(3,5-Bistrifluoromethylphenyl)-2-methylpropionyl]methylamino}-4-(4-fluoro-2-methylphenyl)pyridin-2-yl]cyclohexyl}acetic acid] | 100 | –
3 | Cc1cc(F)ccc1-c1cc(C2(C)CCCC(CC(=O)O)C2)ncc1N(C)C(=O)C(C)(C)c1cc(C(F)(F)F)cc(C(F)(F)F)c1 (stereo not drawn) [Example 4, {3-[5-{[2-(3,5-Bistrifluoromethylphenyl)-2-methylpropionyl]methylamino}-4-(4-fluoro-2-methylphenyl)pyridin-2-yl]-3-methylcyclohexyl}acetic acid] | 77 | –
4 | Cc1cc(F)ccc1-c1cc(C2CCC3(CC2)CC3C(=O)O)ncc1N(C)C(=O)C(C)(C)c1cc(C(F)(F)F)cc(C(F)(F)F)c1 (stereo not drawn) [Example 7, 6-[5-{[2-(3,5-Bistrifluoromethylphenyl)-2-methylpropionyl]methylamino}-4-(4-fluoro-2-methylphenyl)pyridin-2-yl]spiro[2.5]octane-1-carboxylic acid] | 90 | –
5 | Cc1cc(F)ccc1-c1cc(C2CCC(CC(=O)O)CC2)nc(C#N)c1N(C)C(=O)C(C)(C)c1cc(C(F)(F)F)cc(C(F)(F)F)c1 (stereo not drawn) [Example 8, {4-[5-{[2-(3,5-Bistrifluoromethylphenyl)-2-methylpropionyl]methylamino}-6-cyano-4-(4-fluoro-2-methylphenyl)pyridin-2-yl]cyclohexyl}acetic acid] | 100 | –
6 | Cc1ccccc1-c1cc(C2CCC(CC(=O)O)CC2)ncc1N(C)C(=O)C(C)(C)c1cc(C(F)(F)F)cc(C(F)(F)F)c1 (stereo not drawn) [Example 9, {4-[5-{[2-(3,5-Bistrifluoromethylphenyl)-2-methylpropionyl]methylamino}-4-ortho-tolylpyridin-2-yl]-cyclohexyl}acetic acid] | 75 | –
7 | Cc1cc(F)ccc1-c1cc(C2CCC(C(C)C(=O)O)CC2)ncc1N(C)C(=O)C(C)(C)c1cc(C(F)(F)F)cc(C(F)(F)F)c1 (stereo not drawn) [Example 10, 2-{4-[5-{[2-(3,5-Bistrifluoromethylphenyl)-2-methylpropionyl]methylamino}-4-(4-fluoro-2-methylphenyl)pyridin-2-yl]cyclohexyl}propionic acid] | 97 | –
8 | Cc1cc(F)ccc1-c1cc([C@H]2CC[C@H](C(C)(C)C(=O)O)CC2)ncc1N(C)C(=O)C(C)(C)c1cc(C(F)(F)F)cc(C(F)(F)F)c1 [Example 11, trans-2-{4-[5-{[2-(3,5-Bistrifluoromethylphenyl)-2-methylpropionyl]methylamino}-4-(4-fluoro-2-methylphenyl)pyridin-2-yl]cyclohexyl}-2-methylpropionic acid] | 95 | –
9 | Cc1cc(F)ccc1-c1cc([C@H]2CC[C@H](CC(=O)O)CC2)ncc1N(C)C(=O)C(C)(C)c1cc(C(F)(F)F)cc(C(F)(F)F)c1 [Example 13, trans-{4-[5-{[2-(3,5-Bistrifluoromethylphenyl)-2-methylpropionyl]methylamino}-4-(4-fluoro-2-methylphenyl)pyridin-2-yl]cyclohexyl}acetic acid] | 100 | clearance ([1]; 0.1 mg/kg intravenous, read-out: CL tot (total body clearance)): 0.13 mL/min/kg; Vd ([1]; 0.1 mg/kg intravenous, read-out: Vss (steady-state volume of distribution)): 0.401 L/kg; half-life ([1]; 0.1 mg/kg intravenous, read-out: t1/2 (half-life)): 41.5 h; AUC ([1]; 1 mg/kg oral, read-out: AUC (area under the plasma concentration-time curve within 7 days) (converted)): 88200 ng·h/mL; bioavailability ([1]; 1 mg/kg oral, read-out: BA (bioavailability)): 66%; Cmax ([1]; 1 mg/kg oral, read-out: Cmax (maximum plasma test compound concentration)): 1260 ng/mL; number of retching and vomiting, delayed phase ([2]; 24 hours to 72 hours): inhibition of the number of retching and vomiting was observed; number of retching and vomiting, acute phase ([2]; up to 24 hours): inhibition of the number of retching and vomiting was observed
10 | Cc1cc(F)ccc1-c1cc([C@H]2CC[C@@H](CC(=O)O)CC2)ncc1N(C)C(=O)C(C)(C)c1cc(C(F)(F)F)cc(C(F)(F)F)c1 [Example 14, cis-{4-[5-{[2-(3,5-bistrifluoromethylphenyl)-2-methylpropionyl]methylamino}-4-(4-fluoro-2-methylphenyl)pyridin-2-yl]cyclohexyl}acetic acid] | 99 | –
11 | Cc1cc(F)ccc1-c1cc(C2CCC(C)(CC(=O)O)CC2)ncc1N(C)C(=O)C(C)(C)c1cc(C(F)(F)F)cc(C(F)(F)F)c1 (stereo not drawn) [Example 15, {4-[5-{[2-(3,5-Bistrifluoromethylphenyl)-2-methylpropionyl]methylamino}-4-(4-fluoro-2-methylphenyl)pyridin-2-yl]-1-methylcyclohexyl}acetic acid] | 100 | –
12 | Cc1ccccc1-c1cc(C2CCC(CC(=O)O)CC2)nc(C#N)c1N(C)C(=O)C(C)(C)c1cc(C(F)(F)F)cc(C(F)(F)F)c1 (stereo not drawn) [Example 16, [4-(5-{[2-(3,5-Bistrifluoromethylphenyl)-2-methylpropionyl]methylamino}-6-cyano-4-ortho-tolylpyridin-2-yl)cyclohexyl]acetic acid] | 93 | –
13 | Cc1cc(F)ccc1-c1cc(C2CCC(CC(=O)O)CC2)nc(C)c1N(C)C(=O)C(C)(C)c1cc(C(F)(F)F)cc(C(F)(F)F)c1 (stereo not drawn) [Example 18, {4-[5-{[2-(3,5-Bistrifluoromethylphenyl)-2-methylpropionyl]methylamino}-4-(4-fluoro-2-methylphenyl)-6-methylpyridin-2-yl]cyclohexyl}acetic acid] | 100 | –
14 | Cc1cc(F)ccc1-c1cc(C2CCC(CC(=O)O)CC2)nc(CO)c1N(C)C(=O)C(C)(C)c1cc(C(F)(F)F)cc(C(F)(F)F)c1 (stereo not drawn) [Example 19, {4-[5-{[2-(3,5-Bistrifluoromethylphenyl)-2-methylpropionyl]methylamino}-4-(4-fluoro-2-methylphenyl)-6-hydroxymethylpyridin-2-yl]cyclohexyl}acetic acid] | 95 | –
15 | Cc1cc(F)ccc1-c1cc([C@H]2CC[C@H](CC(=O)O)CC2)nc(C#N)c1N(C)C(=O)C(C)(C)c1cc(C(F)(F)F)cc(C(F)(F)F)c1 [Example 20, trans-{4-[5-{[2-(3,5-Bistrifluoromethylphenyl)-2-methylpropionyl]methylamino}-6-cyano-4-(4-fluoro-2-methylphenyl)pyridin-2-yl]cyclohexyl}acetic acid] | 100 | –
16 | Cc1cc(F)ccc1-c1cc([C@H]2CC[C@@H](CC(=O)O)CC2)nc(C#N)c1N(C)C(=O)C(C)(C)c1cc(C(F)(F)F)cc(C(F)(F)F)c1 [Example 21, cis-{4-[5-{[2-(3,5-bistrifluoromethylphenyl)-2-methylpropionyl]methylamino}-6-cyano-4-(4-fluoro-2-methylphenyl)pyridin-2-yl]cyclohexyl}acetic acid] | 100 | –
